From article PMC8943153, “Inhibition of lung microbiota-derived proapoptotic peptides ameliorates acute exacerbation of pulmonary fibrosis” (Nature Communications, 2022)
Where two headings read alike, the source gives them in different places. No end group written: not given here.

Key:
[1] = tested on: putative serine protease in Staphylococcus nepalensis culture supernatant; type: biochemical
[2] = Half-life of corisin in vitro in a cell culture system; type: in vitro ADME, human; design: Corisin concentration in cell culture medium: unit not given here; conditions: enzyme immunoassay; for Corisin concentration in cell culture medium: A549 culture, 10 µg/ml added
Method: We assessed the half-life of corisin in a cell culture system to determine the elimination rate of corisin from a solution in a cell culture system. A549 alveolar epithelial cells were cultured up to confluence in DMEM supplemented with 10% heat-inactivated FBS. The cells were then washed and cultured in FBS (−) DMEM. Corisin was then inoculated into the cell culture medium at a final concentration of 10 µg/ml, and the cell supernatant was sampled after 0, 1, 3, 6, 12, and 24 h. The concentration of corisin was measured by enzyme immunoassay, and the half-life of corisin was determined.

[3] = 0.1, 0.3, 1 mM, 0.5, 1 and 2 h at 37 °C, silver staining

Cl.NCCc1ccc(S(=O)(=O)F)cc1 [pefabloc]
Inhibition ([1]; 0h, 0.1mM): 0
Inhibition ([1]; 0h, 0.3mM): 0
Inhibition ([1]; 0h, 1mM): 0
Inhibition ([1]; 0.5h, 0.1mM): 53.32
Inhibition ([1]; 0.5h, 0.3mM): 87.64
Inhibition ([1]; 0.5h, 1mM): 98.7
Inhibition ([1]; 1h, 0.1mM): 56.04
Inhibition ([1]; 1h, 0.3mM): 90.52
Inhibition ([1]; 1h, 1mM): 98.55
Inhibition ([1]; 2h, 0.1mM): 52.92
Inhibition ([1]; 2h, 0.3mM): 90.94
Inhibition ([1]; 2h, 1mM): 99.04

IVMPESSGNPNAVNPAGYR [corisin]
Half-life in solution in a human alveolar cell culture system ([2]; 10 µg/ml in FBS(-) DMEM on A549 cells): < 60 min
Corisin concentration in cell culture medium ([2]; time 1 h): 3931.8
Corisin concentration in cell culture medium ([2]; time 3 h): 2007.7
Corisin concentration in cell culture medium ([2]; time 6 h): 1433.4
Corisin concentration in cell culture medium ([2]; time 12 h): 1485.2
Corisin concentration in cell culture medium ([2]; time 24 h): 1357.9
half-life at 10 µg/ml ([2]; human, 10 µg/ml in FBS(-) DMEM on confluent A549 cells, sampled 0-24 h, exponential decay model, n = 4 per time point, read-out: Half-life in A549 epithelial cell culture medium (converted)): 42 min

Cl.NCCc1ccc(S(=O)(=O)F)cc1 [pefabloc SC]
Effect on transglycosylase degradation by S. nepalensis culture supernatant [1, 3]: suppress transglycosylase degradation

CC(C)C[C@H](NC(=O)[C@H]1O[C@@H]1C(=O)O)C(=O)NCCCCN=C(N)N [E-64]
Inhibition ([1]; 0h, 3uM): 0
Inhibition ([1]; 0h, 10uM): 0
Inhibition ([1]; 0h, 30uM): 0
Effect on transglycosylase degradation by S. nepalensis culture supernatant [1, 3]: neither E-64 nor EDTA suppressed
Inhibition ([1]; 0.5h, 3uM): 0
Inhibition ([1]; 0.5h, 10uM): 0
Inhibition ([1]; 0.5h, 30uM): 0
Inhibition ([1]; 1h, 3uM): 0
Inhibition ([1]; 1h, 10uM): 0
Inhibition ([1]; 1h, 30uM): 0.2
Inhibition ([1]; 2h, 3uM): 0
Inhibition ([1]; 2h, 10uM): 0
Inhibition ([1]; 2h, 30uM): 0.03

O=C(O)CN(CCN(CC(=O)O)CC(=O)O)CC(=O)O [EDTA, ethylenediaminetetraacetic acid]
Effect on transglycosylase degradation by S. nepalensis culture supernatant [1]: neither E-64 nor EDTA suppressed
